Measurements reported in ChEMBL document CHEMBL4622974, “Leveraging an Open Science Drug Discovery Model to Develop CNS-Penetrant ALK2 Inhibitors for the Treatment of Diffuse Intrinsic Pontine Glioma” (J Med Chem, 2020).
Active and inactive are the calls of the source. No cut-off for these calls is given here.

How the values were obtained:
Activin receptor type-1B = molecular target: T1, Activin receptor type-1B (Homo sapiens, UniProt P36896); experiment: Inhibition of human ALK4 using casein as substrate in presence of [gamma-33P]-ATP by radiometric hotspot assay; format: ADME
T1 sequence (P36896 whole entry): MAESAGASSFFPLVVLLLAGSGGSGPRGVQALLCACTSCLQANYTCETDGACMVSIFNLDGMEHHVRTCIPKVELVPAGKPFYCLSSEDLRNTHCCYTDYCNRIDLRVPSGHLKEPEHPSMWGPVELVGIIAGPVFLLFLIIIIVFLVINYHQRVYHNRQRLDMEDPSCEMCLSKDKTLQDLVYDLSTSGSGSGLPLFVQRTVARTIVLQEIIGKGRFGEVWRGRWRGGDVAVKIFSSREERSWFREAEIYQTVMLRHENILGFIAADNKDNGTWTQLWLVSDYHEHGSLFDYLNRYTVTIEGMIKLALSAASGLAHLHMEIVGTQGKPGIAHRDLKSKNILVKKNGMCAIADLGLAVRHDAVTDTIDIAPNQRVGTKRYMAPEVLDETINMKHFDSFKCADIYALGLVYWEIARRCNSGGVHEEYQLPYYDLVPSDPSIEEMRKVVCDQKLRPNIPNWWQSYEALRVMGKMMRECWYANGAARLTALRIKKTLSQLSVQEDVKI

[1] = molecular target: Tyrosine-protein kinase ABL1 (Homo sapiens, UniProt P00519); experiment: Inhibition of ABL1 (unknown origin)
Tyrosine-protein kinase ABL1, sequence (P00519 whole entry): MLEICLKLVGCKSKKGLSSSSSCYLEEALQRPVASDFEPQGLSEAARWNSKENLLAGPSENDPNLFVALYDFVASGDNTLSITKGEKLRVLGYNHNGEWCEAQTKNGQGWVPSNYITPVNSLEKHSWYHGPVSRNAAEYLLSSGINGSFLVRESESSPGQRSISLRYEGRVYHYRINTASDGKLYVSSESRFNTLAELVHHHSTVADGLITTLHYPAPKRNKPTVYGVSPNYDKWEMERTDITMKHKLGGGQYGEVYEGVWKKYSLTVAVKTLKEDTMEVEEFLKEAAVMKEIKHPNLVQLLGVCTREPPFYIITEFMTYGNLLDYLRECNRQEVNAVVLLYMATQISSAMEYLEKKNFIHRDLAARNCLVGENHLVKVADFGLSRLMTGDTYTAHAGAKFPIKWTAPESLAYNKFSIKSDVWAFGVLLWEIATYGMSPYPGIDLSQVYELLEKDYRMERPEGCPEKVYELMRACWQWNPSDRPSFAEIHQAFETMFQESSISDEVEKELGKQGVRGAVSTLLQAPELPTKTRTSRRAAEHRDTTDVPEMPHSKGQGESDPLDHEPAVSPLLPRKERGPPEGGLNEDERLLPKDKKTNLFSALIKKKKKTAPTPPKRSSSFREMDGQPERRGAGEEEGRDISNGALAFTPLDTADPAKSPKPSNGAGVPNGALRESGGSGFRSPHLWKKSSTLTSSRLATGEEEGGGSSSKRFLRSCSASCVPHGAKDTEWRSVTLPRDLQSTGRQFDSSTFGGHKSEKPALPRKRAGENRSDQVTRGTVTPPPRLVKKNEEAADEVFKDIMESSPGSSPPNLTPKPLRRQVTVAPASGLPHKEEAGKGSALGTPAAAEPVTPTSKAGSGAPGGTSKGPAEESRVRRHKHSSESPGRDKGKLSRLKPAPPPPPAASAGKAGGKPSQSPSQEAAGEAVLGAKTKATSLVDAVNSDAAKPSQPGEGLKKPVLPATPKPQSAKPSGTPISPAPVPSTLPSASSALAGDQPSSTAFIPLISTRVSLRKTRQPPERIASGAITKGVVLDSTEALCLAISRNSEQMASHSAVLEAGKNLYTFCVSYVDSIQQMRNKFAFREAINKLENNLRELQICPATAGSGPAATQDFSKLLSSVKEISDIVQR

[2] = molecular target: Protein-tyrosine kinase 6 (Homo sapiens, UniProt Q13882); experiment: Inhibition of BRK (unknown origin)
[3] = molecular target: Epithelial discoidin domain-containing receptor 1 (Homo sapiens, UniProt Q08345); experiment: Inhibition of DDR1 (unknown origin)
Epithelial discoidin domain-containing receptor 1, sequence (Q08345 whole entry, the tested form may be a part): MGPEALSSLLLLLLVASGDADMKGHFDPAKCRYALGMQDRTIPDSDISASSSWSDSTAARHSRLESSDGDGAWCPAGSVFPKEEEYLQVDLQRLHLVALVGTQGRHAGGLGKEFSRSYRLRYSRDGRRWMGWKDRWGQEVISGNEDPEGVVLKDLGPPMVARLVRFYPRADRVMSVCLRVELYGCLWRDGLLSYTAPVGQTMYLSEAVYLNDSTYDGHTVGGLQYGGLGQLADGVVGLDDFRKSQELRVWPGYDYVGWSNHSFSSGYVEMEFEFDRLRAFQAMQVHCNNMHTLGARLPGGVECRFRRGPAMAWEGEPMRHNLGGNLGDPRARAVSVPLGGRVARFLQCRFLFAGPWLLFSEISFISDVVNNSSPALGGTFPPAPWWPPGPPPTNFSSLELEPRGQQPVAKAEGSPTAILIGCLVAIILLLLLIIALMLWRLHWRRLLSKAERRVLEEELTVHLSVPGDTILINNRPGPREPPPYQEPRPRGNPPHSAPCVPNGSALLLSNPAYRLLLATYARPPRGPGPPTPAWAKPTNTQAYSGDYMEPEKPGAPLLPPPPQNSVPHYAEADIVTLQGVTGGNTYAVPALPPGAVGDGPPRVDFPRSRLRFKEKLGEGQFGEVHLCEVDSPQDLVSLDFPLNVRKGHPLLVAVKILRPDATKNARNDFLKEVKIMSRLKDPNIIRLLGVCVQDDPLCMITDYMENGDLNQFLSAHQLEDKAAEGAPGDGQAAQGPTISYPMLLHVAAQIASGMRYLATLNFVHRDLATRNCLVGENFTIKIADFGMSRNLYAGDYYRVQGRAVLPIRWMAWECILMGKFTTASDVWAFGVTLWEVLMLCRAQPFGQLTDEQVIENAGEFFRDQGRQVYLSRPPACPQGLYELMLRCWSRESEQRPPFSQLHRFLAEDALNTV

Misshapen-like kinase 1 = Misshapen-like kinase 1 (Homo sapiens, UniProt Q8N4C8); experiment: Inhibition of MINK (unknown origin)
[4] = molecular target: TRAF2 and NCK-interacting protein kinase (Homo sapiens, UniProt Q9UKE5); experiment: Inhibition of TNIK (unknown origin)
[5] = molecular target: Mitogen-activated protein kinase kinase kinase 20 (Homo sapiens, UniProt Q9NYL2); experiment: Inhibition of ZAK (unknown origin)
[6] = Stability in CD1 mouse liver microsomes assessed as compound remaining at 1 uM incubated for 60 mins by LC/MS analysis; format: ADME, Microsome; details: read-out: Stability
[7] = Stability in human liver microsomes assessed as compound remaining at 1 uM incubated for 60 mins by LC/MS analysis; format: ADME, Microsome; details: read-out: Stability
[8] = Protein binding in human plasma at 5 uM after 4 hrs by rapid equilibrium dialysis; format: ADME, cell-free; details: read-out: PPB (converted)
[9] = Protein binding in human plasma assessed as free fraction at 5 uM after 4 hrs by rapid equilibrium dialysis; format: ADME, cell-free
[10] = Half life in CD1 mouse liver microsomes at 1 uM incubated for 60 mins by LC/MS analysis; format: ADME, Microsome
[11] = Half life in human liver microsomes at 1 uM incubated for 60 mins by LC/MS analysis; format: ADME, Microsome
[12] = Clearance in CB17 SCID mouse at 2 mg/kg, iv after 0.25 to 24 hrs by LC/MS/MS method; format: ADME, organism-based; details: in vivo
[13] = Clearance in SD rat at 2 mg/kg, iv after 0.25 to 24 hrs by LC/MS/MS method; format: ADME, organism-based; details: in vivo
[14] = Volume of distribution at steady state in CB17 SCID mouse at 2 mg/kg, iv after 0.25 to 24 hrs by LC/MS/MS method; format: ADME, organism-based; details: in vivo, read-out: Vdss
[15] = Volume of distribution at steady state in SD rat at 2 mg/kg, iv after 0.25 to 24 hrs by LC/MS/MS method; format: ADME, organism-based; details: in vivo, read-out: Vdss
[16] = Half life in CB17 SCID mouse at 10 mg/kg, po after 0.25 to 24 hrs by LC/MS/MS method; format: ADME, organism-based; details: in vivo
[17] = Half life in SD rat at 10 mg/kg, po after 0.25 to 24 hrs by LC/MS/MS method; format: ADME, organism-based; details: in vivo
[18] = Cmax in CB17 SCID mouse at 10 mg/kg, po after 0.25 to 24 hrs by LC/MS/MS method; format: ADME, organism-based; design: dose 10 mg/kg, route oral; details: in vivo
[19] = Cmax in SD rat at 10 mg/kg, po after 0.25 to 24 hrs by LC/MS/MS method; format: ADME, organism-based; design: dose 10 mg/kg, route oral; details: in vivo
[20] = AUCinfinity in CB17 SCID mouse at 10 mg/kg, po after 0.25 to 24 hrs by LC/MS/MS method; format: ADME, organism-based; design: dose 10 mg/kg, time infinity, route oral; details: in vivo
[21] = AUCinfinity in SD rat at 10 mg/kg, po after 0.25 to 24 hrs by LC/MS/MS method; format: ADME, organism-based; design: dose 10 mg/kg, route oral, time infinity; details: in vivo
[22] = Oral bioavailability in CB17 SCID mouse at 10 mg/kg after 0.25 to 24 hrs by LC/MS/MS method; format: ADME, organism-based; details: in vivo
[23] = Oral bioavailability in SD rat at 10 mg/kg after 0.25 to 24 hrs by LC/MS/MS method; format: ADME, organism-based; details: in vivo
[24] = Ratio of drug level in brain to plasma in CB17 SCID mouse at 100 mg/kg, po measured at 4 h; format: ADME, organism-based; details: brain and plasma, read-out: BPR
[25] = Toxicity in CB17 SCID mouse assessed as induction of adverse effect at 2 mg/kg, iv; format: organism-based; details: in vivo
[26] = Toxicity in CB17 SCID mouse assessed as induction of adverse effect at 10 mg/kg, po; format: organism-based; details: in vivo
[27] = Toxicity in CB17 SCID mouse assessed as behavioural abnormalities at 100 mg/kg, po measured after 24 hrs; format: organism-based; details: in vivo
[28] = Toxicity in CB17 SCID mouse assessed as physical abnormalities at 100 mg/kg, po measured after 24 hrs; format: organism-based; details: in vivo
[29] = Growth inhibition of human SU-DIPG-XXI cells harboring ACVR1 G328W mutant; format: functional
[30] = Growth inhibition of human HSJD-DIPG-007 cells harboring ACVR1 R206H mutant; format: functional
[31] = molecular target: Tyrosine-protein kinase Lyn (Homo sapiens) (UniProt P07948); experiment: Inhibition of LYN (unknown origin)
Tyrosine-protein kinase Lyn (Homo sapiens), sequence (P07948 2-512 limits assumed): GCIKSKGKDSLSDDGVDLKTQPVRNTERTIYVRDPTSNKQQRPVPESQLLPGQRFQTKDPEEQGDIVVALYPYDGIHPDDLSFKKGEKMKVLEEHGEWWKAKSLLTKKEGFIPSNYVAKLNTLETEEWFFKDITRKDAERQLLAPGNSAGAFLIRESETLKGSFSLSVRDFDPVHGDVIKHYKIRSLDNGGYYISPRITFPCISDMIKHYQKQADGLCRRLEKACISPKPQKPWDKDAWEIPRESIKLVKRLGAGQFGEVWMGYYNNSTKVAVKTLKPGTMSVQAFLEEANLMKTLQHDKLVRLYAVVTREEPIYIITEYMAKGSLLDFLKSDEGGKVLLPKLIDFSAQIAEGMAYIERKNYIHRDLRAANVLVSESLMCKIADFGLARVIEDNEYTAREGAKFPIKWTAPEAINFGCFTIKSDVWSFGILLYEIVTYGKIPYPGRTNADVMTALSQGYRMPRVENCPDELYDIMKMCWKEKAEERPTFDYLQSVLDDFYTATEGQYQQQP

[32] = molecular target: Alpha-2A adrenergic receptor (Homo sapiens, UniProt P08913); experiment: Inhibition of recombinant human adrenergic alpha2A receptor incubated for 60 mins by scintillation counting method
Alpha-2A adrenergic receptor, sequence (P08913 whole entry): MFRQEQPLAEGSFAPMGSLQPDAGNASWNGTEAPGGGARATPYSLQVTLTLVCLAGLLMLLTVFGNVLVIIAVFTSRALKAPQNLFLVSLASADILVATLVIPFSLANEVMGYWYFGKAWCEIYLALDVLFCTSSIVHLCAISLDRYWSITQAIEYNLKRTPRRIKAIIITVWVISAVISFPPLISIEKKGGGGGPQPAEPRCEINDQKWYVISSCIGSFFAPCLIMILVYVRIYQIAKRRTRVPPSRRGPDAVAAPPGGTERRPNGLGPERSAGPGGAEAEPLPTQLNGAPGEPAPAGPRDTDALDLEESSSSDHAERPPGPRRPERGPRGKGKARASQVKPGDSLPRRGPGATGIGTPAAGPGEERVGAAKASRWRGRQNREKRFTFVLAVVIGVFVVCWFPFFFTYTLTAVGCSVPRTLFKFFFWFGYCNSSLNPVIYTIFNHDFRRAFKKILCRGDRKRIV

Cytochrome P450 1A2 = Cytochrome P450 1A2 (Homo sapiens, UniProt P05177); experiment: Inhibition of CYP1A2 in human liver microsomes using phenacetin as substrate incubated for 20 mins in presence of NADPH by LC/MS/MS analysis; format: ADME
Cytochrome P450 1A2, sequence (P05177 whole entry): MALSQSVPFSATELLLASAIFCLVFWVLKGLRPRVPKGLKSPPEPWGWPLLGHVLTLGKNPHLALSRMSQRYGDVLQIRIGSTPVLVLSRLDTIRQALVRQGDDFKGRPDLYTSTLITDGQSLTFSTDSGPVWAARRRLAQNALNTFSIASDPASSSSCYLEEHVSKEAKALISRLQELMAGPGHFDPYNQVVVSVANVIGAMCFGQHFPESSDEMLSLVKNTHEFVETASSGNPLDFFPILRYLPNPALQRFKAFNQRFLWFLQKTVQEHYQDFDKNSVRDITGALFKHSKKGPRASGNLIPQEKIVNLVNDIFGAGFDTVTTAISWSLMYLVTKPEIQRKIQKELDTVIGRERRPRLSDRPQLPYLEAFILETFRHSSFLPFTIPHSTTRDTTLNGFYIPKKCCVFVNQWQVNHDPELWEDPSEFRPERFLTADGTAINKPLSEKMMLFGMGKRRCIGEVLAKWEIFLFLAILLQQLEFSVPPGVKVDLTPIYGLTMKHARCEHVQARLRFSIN

Cytochrome P450 2C8 = Cytochrome P450 2C8 (Homo sapiens, UniProt P10632); experiment: Inhibition of CYP2C8 in human liver microsomes using paclitaxel as substrate incubated for 20 mins in presence of NADPH by LC/MS/MS analysis; format: ADME
Cytochrome P450 2C8, sequence (P10632 whole entry): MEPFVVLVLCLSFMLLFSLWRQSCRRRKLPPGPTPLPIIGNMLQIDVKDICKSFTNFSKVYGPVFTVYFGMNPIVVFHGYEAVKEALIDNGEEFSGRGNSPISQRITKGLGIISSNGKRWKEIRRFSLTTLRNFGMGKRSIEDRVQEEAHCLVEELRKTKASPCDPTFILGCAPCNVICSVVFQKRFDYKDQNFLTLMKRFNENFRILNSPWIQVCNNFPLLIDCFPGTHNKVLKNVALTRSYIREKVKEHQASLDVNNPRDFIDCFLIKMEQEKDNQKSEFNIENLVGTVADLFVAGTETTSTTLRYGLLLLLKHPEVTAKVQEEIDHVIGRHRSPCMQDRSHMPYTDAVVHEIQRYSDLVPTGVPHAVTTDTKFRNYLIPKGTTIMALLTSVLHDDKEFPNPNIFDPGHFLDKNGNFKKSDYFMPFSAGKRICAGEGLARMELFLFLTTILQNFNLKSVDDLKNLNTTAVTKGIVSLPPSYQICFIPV

[33] = Toxicity in C57BL/6 mouse assessed as mouse death at 100 mg/kg, po QD administered for 5 days measured after 24 hrs; format: organism-based; details: in vivo
[34] = Toxicity in C57BL/6 mouse assessed as body weight loss at 100 mg/kg, po QD administered for 5 days measured after 24 hrs relative to control; format: organism-based; details: in vivo

| Structure (SMILES) | IC50 (Activin receptor type-1B) [nM] | remaining at 1 h, 1 µM [6] [%] | remaining at 1 h, 1 µM [7] [%] | fraction unbound at 4 h, 5 µM [8] | fraction unbound at 4 h, 5 µM [9] | half-life at 1 µM [10] [h] | half-life at 1 µM [11] [h] | clearance [12] [mL/min/kg] | clearance [13] [mL/min/kg] | Vd [14] [L/kg] | Vd [15] [L/kg] | half-life [16] [h] | half-life [17] [h] | Cmax [18] [µM] | Cmax [19] [µM] | AUC(0-inf) [20] [µM·h] | AUC(0-inf) [21] [µM·h] | bioavailability [22] [%] | bioavailability [23] [%] | Kp at 4 h [24] | further results |
| --- | --- | --- | --- | --- | --- | --- | --- | --- | --- | --- | --- | --- | --- | --- | --- | --- | --- | --- | --- | --- | --- |
| COc1cc(-c2cncc(-c3ccc(C4CCN(C)CC4)cc3)c2C)cc(OC)c1OC | > 2000 | 55.5 | 71.2 | 0.05 | 0.05 | > 1 | > 1 | 8.9 | 15.1 | 2.44 | 4.33 | 3.67 | 3.9 | 4.74 | 1.16 | 32.4 | 12.9 | 74 | 50 | 1.55 | inhibition [1]: Active; inhibition [2]: Active; inhibition [3]: Active; inhibition (Misshapen-like kinase 1): Active; inhibition [4]: Active; inhibition [5]: Active; Activity [25]: Non-Toxic; Activity [26]: Non-Toxic; Activity [27]: Non-Toxic; Activity [28]: Non-Toxic; GI50 [29]: 214 nM; GI50 [30]: 36 nM; inhibition [31]: Active |
| COc1cc(-c2cncc(-c3ccc(N4CCNCC4)cc3)c2C)cc(OC)c1OC | 1340 | 64.6 | 71.4 | 0.057 | 0.057 | > 1 | > 1 | 12.7 | 22.1 | 2.05 | 5.22 | 3.11 | 3.58 | 6.16 | 1.28 | 51.7 | 17.4 | 100 | 96 | 1.1 | IC50 [1]: 336 to 924 nM; IC50 [2]: 336 to 924 nM; IC50 [3]: 41 nM; IC50 (Misshapen-like kinase 1): 336 to 924 nM; IC50 [4]: 96 nM; IC50 [5]: 336 to 924 nM; IC50 [32]: 2180 nM; IC50 (Cytochrome P450 1A2): > 30000 nM; IC50 (Cytochrome P450 2C8): > 30000 nM; Activity [25]: Non-Toxic; Activity [26]: Non-Toxic; Activity [27]: Non-Toxic; Activity [28]: Non-Toxic; Activity [33]: Non-Toxic; Activity [34]: Non-Toxic; GI50 [29]: 52 nM; GI50 [30]: 130 nM |
